Results from patent US12636311B2, “Topically administered strontium-containing complexes for treating pain, pruritis and inflammation” (Galleon Labs LLC, priority 2012, dated 2026).

Columns and labels:
brachioradial pruritus = assay: Brachioradial pruritus, itch severity reported by subject; type: in vivo, human; details: topical treatment, moderate to severe itch
From the text: A person suffered from brachioradial pruritus for over 20 years, a neuropathic condition that is believed to be caused by compression of cervical nerves that innervate the mid-back and arms. They experienced moderate to severe itching typically most intense on their arms, neck and shoulders.
During the last several years, the subject treated their condition with either strontium alone (4% or 6% elemental strontium) and with a spray formulation of strontium+ Gallic Acid+ NAC. […] Reapplication 3 or 4 times over a 10-20 minute period increased that anti-itch benefit and reduced the itching by about 50%. […] If itching remained, a second spray eliminated the remaining itching.
Subsequent blinded tests were performed in which either 4% strontium only or 6% strontium only was directly compared to 4% strontium+ Gallic Acid+ NAC. Since the subject's brachioradial pruritus typically produced itching of approximately equal intensity on both arms in a bilaterally-symmetrical pattern, strontium alone was applied to one arm and strontium+ Gallic Acid+ NAC was applied to the contralateral arm in a double-blinded manner and itch severity was reported by the subject.

[1] = system: synchronous neurotransmitter release in response to TCN activation; details: strontium substitutes for calcium; cited from earlier work
[2] = system: TCN activation by 70% glycolic acid peel; details: strontium mixed with 70% glycolic acid, pH 0.6; cited from earlier work

| SMILES | Anti-itch benefit (in words) (brachioradial pruritus) | Reduction of amplitude of synchronous neurotransmitter release [1] | Suppression of burning pain and stinging [2] [%] |
| --- | --- | --- | --- |
| CN(C)CCOC(c1ccccc1)c1ccccc1 [diphenhydramine] | limited benefit only when the itching was mild |  |  |
| C[C@]12CCC(=O)C=C1CC[C@@H]1[C@@H]2[C@@H](O)C[C@@]2(C)[C@H]1CC[C@]2(O)C(=O)CO [hydrocortisone] | no anti-itch benefit |  |  |
| [Sr+2] [strontium] |  | more than 90% | ≥ 80 |
